Read-outs that look alike come from different tables or passages of the source. Marks after values point to notes of the source that are not given here.
What was measured:
[1] = Equilibrium solubility, shake-flask method; format: physicochemical; details: 37 °C, thermodynamic from solid, read-out: Equilibrium solubility in buffer solution
Experimental: (§1) The shake-flask method was used to test the equilibrium solubility of NsTyr, NsTyr-2K, NsTyr-2Na in water at 37° C. […] The apparent lipid-water distribution coefficient log p of NsTyr-2K, NsTyr-2Na was respectively 1.512 and 1.477. Under different pHs, see Table 1 for the equilibrium solubility test data of NsTyr-2K, NsTyr-2Na; and see Table 2 for the apparent lipid-water distribution coefficient of NsTyr-2K and NsTyr-2Na.

[2] = Apparent lipid-water distribution coefficient; format: physicochemical
Experimental: as §1

[3] = Stability assessment (influencing factors, acceleration and long-term tests, Chinese Pharmacopoeia 2010); format: physicochemical; details: high temperature, high humidity, strong light
Experimental: Considering that prototype drug stearoyl amino acid tend to absorb moisture, cake and become yellowish during long-term storage, the stearoyl amino acid is now converted into a form of active salt thereof. And the stability of NsTyr-2K and NsTyr-2Na was tested as required for bulk pharmaceutical chemicals according to the People's Republic of China Pharmacopoeia 2010.

[4] = Absorption kinetics after intragastric administration; format: in vivo; details: SD rats, oral 200 mg/kg
Experimental: Ten SD rats weighing 150-180 g were randomly divided into two groups, each comprising five, with males and females combined. After intragastric administration of 200 mg/kg of saline solution containing NsTyr and NsTyr-2K, the average blood concentration-time curve thereof was respectively shown in FIG. 2.

[5] = tested on: gerbil model with global ischemia reperfusion injury; assay: Morris water maze test (cerebral ischemia); format: in vivo
Text: Taking N-stearoyl amino acid potassium NsTyr-2K as an example, a gerbil model with global ischemia reperfusion injury was used to assess the protective role of NsTyr-2K against neurobehavioral disorder caused by cerebral ischemia-reperfusion injury by examining the changing behavioral indexes such as spatial, learning and cognitive functions in the perspective of overall animals during passive dark avoidance test and Morris water maze test.
Up to day 4, for normal animals their latency fell to 29.8+/−12.55 s, and their swimming distance to 3,216.5+/−1,026.46 cm. From day 1 to day 2, there was no evident difference in the average latency before reaching the platform and the swimming distance prior to going onto the platform between the ischemia group of gerbils and any of the other groups. As training sessions increased, the latency and swimming distance of each group of gerbils before reaching the platform was shortened. The gap between the ischemia group and any of the other groups began to widen and reached the record on day 4.

[6] = tested on: obese mouse model; assay: Administration test in obese mouse model (weight, food intake); format: in vivo, C57BL/6 mice; details: for obese mouse weight: four weeks
Experimental: 2. Method: 60 C57BL/6 mice (aged 3 weeks, male, with a weight of 8.3 g each) were adaptively fed with 12% kcal normal diet for one week, and randomly divided into 6 groups, each consisting of 10 mice. One group (ND) continued to be fed with normal diet, the rest five groups (HFD I˜V) were fed with 45% kcal high-fat diet.
In the whole test process the mice kept raised in the following environment: temperature: 23±3° C.; humidity: 50±5%; bright and dim alternating cycle: 12 h/12 h; freely available to diet and drinking water in the whole process.
2. Method: ND and HFD I were respectively taken as normal and high-fat diet blank control groups, and were treated with 0.5% sodium carboxymethyl cellulose solution (5 ml/kg/day); HFD II˜IV were taken as groups of recipients, and were treated with NST-2K (20, 60, 100 mg/kg/day); HFD V was taken as a positive control group, and treated with Orlistat (100 mg/kg/day). All the above drugs dissolved in aqueous solution of 0.5% sodium carboxymethyl cellulose and were administered. The administration remained four weeks. In each week average weight and food intake were kept in record until the phase of administration ended.

[7] = tested on: obese mouse model; assay: Collection and observation of fat and liver tissues of obese mice; format: in vivo, C57BL/6 mice; details: for perirenal fat percentage quality: HFD I blank 1.63 ± 0.10; for Epididymal fat percentage quality: HFD I blank 2.99 ± 0.08; for Liver percentage quality: HFD I blank 3.51 ± 0.07
Text: 2. Method: After administration test in Embodiment 8, the mice were denied food overnight. Their abdominal cavity was opened to observe abdominal fat content in each group of the mice. Epididymal fat, perirenal fat and liver were separated and weighed.

[8] = tested on: obese mouse model; assay: H&E staining of fat and liver tissue of obese mice; format: in vivo, C57BL/6 mice
Experimental: 2. Method: Epididymal fat and liver were fixed in 10% neutral formaldehyde solution for 48 h. After paraffin embedding they were made into […] of slices, and stained with hematoxylin-eosin (H&E staining). Light microscope was used to observe the size of fat cells, the structure of liver cells and adipose accumulation.

[9] = both sexes, Sprague-Dawley (SD), rat, blood

SMILES: CCCCCCCCCCCCCCCCCC(=O)N[C@@H](Cc1ccc(O)cc1)C(=O)[O-].[K+] [NsTyr-2K, N-stearoyl tyrosine potassium salt]
- solubility thermodynamic ([1]; aqueous buffer, pH 2.0): 49.3 µg/mL
- solubility thermodynamic ([1]; aqueous buffer, pH 3.0): 58.5 µg/mL
- solubility thermodynamic ([1]; aqueous buffer, pH 4.0): 188 µg/mL
- solubility thermodynamic ([1]; aqueous buffer, pH 5.0): 221 µg/mL
- solubility thermodynamic ([1]; aqueous buffer, pH 6.0): 243 µg/mL
- solubility thermodynamic ([1]; aqueous buffer, pH 7.0): 251 µg/mL
- solubility thermodynamic ([1]; aqueous buffer, pH 8.0): 286 µg/mL
- solubility thermodynamic ([1]; aqueous buffer, pH 9.0): 370 µg/mL
- solubility thermodynamic ([1]; pH 7.4, aqueous buffer): 270 µg/mL
- logP [2]: 1.51
- Apparent lipid-water distribution coefficient Ko/w ([2]; buffer pH 2.0): 76.020
- logP ([2]; buffer pH 2.0, read-out: Apparent lipid-water distribution coefficient LogP): 1.88
- Apparent lipid-water distribution coefficient Ko/w ([2]; buffer pH 3.0): 30.571
- logP ([2]; buffer pH 3.0, read-out: Apparent lipid-water distribution coefficient LogP): 1.49
- Apparent lipid-water distribution coefficient Ko/w ([2]; buffer pH 4.0): 16.020
- logP ([2]; buffer pH 4.0, read-out: Apparent lipid-water distribution coefficient LogP): 1.21
- Apparent lipid-water distribution coefficient Ko/w ([2]; buffer pH 5.0): 21.934
- logP ([2]; buffer pH 5.0, read-out: Apparent lipid-water distribution coefficient LogP): 1.34
- Apparent lipid-water distribution coefficient Ko/w ([2]; buffer pH 6.0): 28.935
- logP ([2]; buffer pH 6.0, read-out: Apparent lipid-water distribution coefficient LogP): 1.46
- Apparent lipid-water distribution coefficient Ko/w ([2]; buffer pH 7.0): 37.855
- logP ([2]; buffer pH 7.0, read-out: Apparent lipid-water distribution coefficient LogP): 1.58
- Apparent lipid-water distribution coefficient Ko/w ([2]; buffer pH 7.4): 16.674
- logP ([2]; buffer pH 7.4, read-out: Apparent lipid-water distribution coefficient LogP): 1.22
- Apparent lipid-water distribution coefficient Ko/w ([2]; buffer pH 8.0): 13.797
- logP ([2]; buffer pH 8.0, read-out: Apparent lipid-water distribution coefficient LogP): 1.14
- Apparent lipid-water distribution coefficient Ko/w ([2]; buffer pH 9.0): 13.140
- logP ([2]; buffer pH 9.0, read-out: Apparent lipid-water distribution coefficient LogP): 1.12
- stability [3]: stable properties
- AUC multiplied, compared with NsTyr [4]: 30 times
- half-life period compared with NsTyr [4]: nearly doubled
- peak concentration Cmax multiplied, compared with NsTyr [4]: ~20 times
- AUC(0-inf) [4, 9]: 3690 ng·h/mL
- AUC(0-t) [4, 9]: 3490 ng·h/mL
- Cmax [4, 9]: 2400 ng/mL
- MRT last [4, 9]: 2.19 h
- Tmax [4, 9]: 0.6 h
- half-life [4, 9]: 2.9 h
- period before finding the underwater platform and swimming distance ([5]; 15 mg/kg, compared with the model group): no obvious difference
- time percentage and swimming distance percentage in the first quadrant (probe test) ([5]; day 5, platform removed, against ischemia group, NsTyr-2K 30 and 60 mg/kg, nimotop control): statistical difference
- period before finding the underwater platform and swimming distance ([5]; days 3 and 4, compared with the ischemia group, NsTyr-2K 30 and 60 mg/kg, nimotop positive control): a shortened period before finding the underwater platform and a shortened swimming distance
- obese mouse weight ([6]; 100 mg/kg/day): can reduce obese mouse weight
- appetite (average daily food intake) ([6]; 4-week administration, high-fat diet groups): neither NST-2K nor Orlistat suppressed appetite
- obese mouse weight ([6]; 20, 60 mg/kg/day): can inhibit weight gain in obese mice
- perirenal fat percentage quality ([7]; 20 mg/kg/day): 1.51 ± 0.07 g/100 g weight
- Epididymal fat percentage quality ([7]; 20 mg/kg/day): 2.94 ± 0.11 g/100 g weight
- Liver percentage quality ([7]; 20 mg/kg/day): 3.47 ± 0.05 g/100 g weight
- perirenal fat percentage quality ([7]; 60 mg/kg/day): 1.37 ± 0.04 g/100 g weight
- Epididymal fat percentage quality ([7]; 60 mg/kg/day): 2.72 ± 0.07 g/100 g weight
- Liver percentage quality ([7]; 60 mg/kg/day): 3.41 ± 0.06***^ g/100 g weight
- perirenal fat percentage quality ([7]; 100 mg/kg/day): 1.26 ± 0.05 g/100 g weight
- Epididymal fat percentage quality ([7]; 100 mg/kg/day): 2.64 ± 0.08 g/100 g weight
- Liver percentage quality ([7]; 100 mg/kg/day): 3.46 ± 0.07***^ g/100 g weight
- abdominal fat pad ([7]; increasing doses 20, 60, 100 mg/kg/day, compared with HFD I): the abdominal fat pad showed a shrinking trend
- abdominal fat quality, compared with Orlistat ([7]; same dose (100 mg/kg)): better effects in reducing abdominal fat quality than Orlistat
- size of epididymal fat cells ([8]; HFD III, HFD IV (NST-2K 60, 100 mg/kg/day) and HFD V (Orlistat 100 mg/kg/day) vs HFD I): evidently smaller fat cells than HFD I
- fat accumulation in liver tissues ([8]; as the administration dose increased, vs HFD I): the accumulation began to ease
- size of epididymal fat cells ([8]; low-dose (20 mg/kg/day)): could not significantly shrink fat cells

— patent US9914698B2, “Stearoyl amino acid salt and preparation method and application thereof” (Shanghai Jiaotong University School of Medicine, priority 2014, dated 2018)
